In ChEMBL document CHEMBL5712883, “RNA polymerase II stalling promotes nucleosome occlusion and pTEFb recruitment to drive immortalization by Epstein-Barr virus” (PLoS Pathog, 2011):
The source made the active and inactive calls. The rule behind the calls is not given here.

Experiments:
Conditions in all cases: Mutu-3, dose 50.0 nM, time 48.0 hrs
[1] = biological target: Bromodomain-containing protein 4 (Homo sapiens) (UniProt O60885)
Description: Inhibition of BRD4 in human Mutu-3 cells assessed as decrease in CDK9 association in -40 cp region at 50 nM incubated for 48 hrs by CHIP analysis

[2] = biological target: Bromodomain-containing protein 4 (Homo sapiens) (UniProt O60885); remark: listed apart in the source
Description: Inhibition of BRD4 in human Mutu-3 cells assessed as decrease in Cyclin T1 association in -208 cp region at 50 nM incubated for 48 hrs by CHIP analysis

[3] = biological target: Bromodomain-containing protein 4 (Homo sapiens) (UniProt O60885); remark: listed apart in the source
Description: Inhibition of BRD4 in human Mutu-3 cells assessed as decrease in Brd4 association in +295 cp region at 50 nM incubated for 48 hrs by CHIP analysis

[4] = biological target: Bromodomain-containing protein 4 (Homo sapiens) (UniProt O60885); remark: listed apart in the source
Description: Inhibition of BRD4 in human Mutu-3 cells assessed as decrease in Cp-initiated LMP1 transcription at 50 nM incubated for 48 hrs by Q-PCR analysis relative to control

[5] = biological target: Bromodomain-containing protein 4 (Homo sapiens) (UniProt O60885); remark: listed apart in the source
Description: Inhibition of BRD4 in human Mutu-3 cells assessed as decrease in CDK9 association in +48 cp region at 50 nM incubated for 48 hrs by CHIP analysis

[6] = biological target: Bromodomain-containing protein 4 (Homo sapiens) (UniProt O60885); remark: listed apart in the source
Description: Inhibition of BRD4 in human Mutu-3 cells assessed as decrease in Cyclin T1 association in -40 cp region at 50 nM incubated for 48 hrs by CHIP analysis

[7] = biological target: Bromodomain-containing protein 4 (Homo sapiens) (UniProt O60885); remark: listed apart in the source
Description: Inhibition of BRD4 in human Mutu-3 cells assessed as decrease in Cyclin T1 association in +295 cp region at 50 nM incubated for 48 hrs by CHIP analysis

[8] = biological target: Bromodomain-containing protein 4 (Homo sapiens) (UniProt O60885); remark: listed apart in the source
Description: Inhibition of BRD4 in human Mutu-3 cells assessed as decrease in Brd4 association in -40 cp region at 50 nM incubated for 48 hrs by CHIP analysis

[9] = biological target: Bromodomain-containing protein 4 (Homo sapiens) (UniProt O60885); remark: listed apart in the source
Description: Inhibition of BRD4 in human Mutu-3 cells assessed as decrease in CDK9 association in -208 cp region at 50 nM incubated for 48 hrs by CHIP analysis

[10] = biological target: Bromodomain-containing protein 4 (Homo sapiens) (UniProt O60885); remark: listed apart in the source
Description: Inhibition of BRD4 in human Mutu-3 cells assessed as decrease in Cp-initiated EBNA 1 transcription at 50 nM incubated for 48 hrs by Q-PCR analysis relative to control

[11] = biological target: Bromodomain-containing protein 4 (Homo sapiens) (UniProt O60885); remark: listed apart in the source
Description: Inhibition of BRD4 in human Mutu-3 cells assessed as decrease in Cyclin T1 association in +48 cp region at 50 nM incubated for 48 hrs by CHIP analysis

[12] = biological target: Bromodomain-containing protein 4 (Homo sapiens) (UniProt O60885); remark: listed apart in the source
Description: Inhibition of BRD4 in human Mutu-3 cells assessed as decrease in CDK9 association in +295 cp region at 50 nM incubated for 48 hrs by CHIP analysis

[13] = biological target: Bromodomain-containing protein 4 (Homo sapiens) (UniProt O60885); remark: listed apart in the source
Description: Inhibition of BRD4 in human Mutu-3 cells assessed as decrease in Cp-initiated EBNA 2 transcription at 50 nM incubated for 48 hrs by Q-PCR analysis relative to control

[14] = biological target: Bromodomain-containing protein 4 (Homo sapiens) (UniProt O60885); remark: listed apart in the source
Description: Inhibition of BRD4 in human Mutu-3 cells assessed as decrease in Brd4 association in -208 cp region at 50 nM incubated for 48 hrs by CHIP analysis

[15] = biological target: Bromodomain-containing protein 4 (Homo sapiens) (UniProt O60885); remark: listed apart in the source
Description: Inhibition of BRD4 in human Mutu-3 cells assessed as decrease in Brd4 association in +48 cp region at 50 nM incubated for 48 hrs by CHIP analysis

Cc1sc2c(c1C)C(c1ccc(Cl)cc1)=N[C@@H](CC(=O)OC(C)(C)C)c1nnc(C)n1-2
inhibition [1]: Active
inhibition [2]: Active
inhibition [3]: Active
inhibition [4]: inactive
inhibition [5]: Active
inhibition [6]: Active
inhibition [7]: Active
inhibition [8]: Active
inhibition [9]: Active
inhibition [10]: 65%
inhibition [11]: Active
inhibition [12]: Active
inhibition [13]: 74%
inhibition [14]: Active
inhibition [15]: Active
